According to patent EP0745595A1, “3-(3-Aryloxyphenyl)-1-(substituted methyl)-s-triazine-2,4,6-oxo or thiotrione herbicidal agents” (American Cyanamid Company, priority 1995, dated 1996):

Experiments:
Assay type in all cases: in vivo
[1] = test system: ECHINOCHLOA CRUS-GALLI, (L) BEAU; test: Postemergence herbicidal evaluation, ECHCG (Barnyardgrass); set-up: key to ECHCG rating / Herbicidal effect rating, ECHCG / ECHCG: 0-9 visual rating scale vs untreated control
Method: (§1) In the tests, seedling plants are grown in jiffy flats for about two weeks. The test compounds are dispersed in 50/50 acetone/water mixtures containing 0.5% TWEEN®20, a polyoxyethylene sorbitan monolaurate surfactant of Atlas Chemical Industries, in sufficient quantities to provide the equivalent of about 0.125 kg to 0.500 kg per hectare of active compound when applied to the plants through a spray nozzle operating at 40 psi for a predetermined time. After spraying, the plants are placed on greenhouse benches and are cared for in the usual manner, commensurate with conventional greenhouse practices. From four to five weeks after treatment, the seedling plants are examined and rated according to the rating system set forth below. Where more than one test is involved for a given compound, the data are averaged.
(§2) Plant species employed in these evaluations are reported by header abbreviation, common name and scientific name.
(§3) Results of herbicide evaluation are expressed on a rating scale (0-9). The scale is based upon a visual observation of plant stand, vigor, malformation, size, chlorosis and overall plant appearance as compared with a control.

IPOMOEA SPP. = test: Postemergence herbicidal evaluation, IPOSS (Morningglory spp.)
Method: as §1, with “in sufficient quantities to provide the equivalent of about 0.125 kg to 0.500 kg per hectare of active compound when applied” left out
as §2, §3

CHENOPODIUM ALBUM, L. [2] = test: Postemergence herbicidal evaluation, CHEAL (Lambsquarters, Common)
Method: as §1, with “in sufficient quantities to provide the equivalent of about 0.125 kg to 0.500 kg per hectare of active compound when applied” left out
as §2, §3

[3] = test system: GLYCINE MAX(L) MERR. CV. WILLIAMS; test: Postemergence herbicidal evaluation, GLXMAW (Soybean, Williams); set-up: key to GLXMAW rating / Herbicidal effect rating, GLXMAW / GLXMAW: 0-9 visual rating scale vs untreated control
Method: as §1, §2, §3

[4] = test system: SETARIA VIRIDIS, (L) BEAU; test: Postemergence herbicidal evaluation, SETVI (Foxtail, Green); set-up: key to SETVI rating / Herbicidal effect rating, SETVI / SETVI: 0-9 visual rating scale vs untreated control
Method: as §1, §2, §3

[5] = test system: ABUTILON THEOPHRASTI, MEDIC.; test: Postemergence herbicidal evaluation, ABUTH (Velvetleaf); details: for ABUTH, herbicide rating (0-9): rated four to five weeks after treatment, averaged
Method: as §1, with “in sufficient quantities to provide the equivalent of about 0.125 kg to 0.500 kg per hectare of active compound when applied” left out
as §2, §3

[6] = test system: AMBROSIA ARTEMISIIFOLIA, L.; test: Postemergence herbicidal evaluation, AMBEL (Ragweed, Common); details: for AMBEL, herbicide rating (0-9): rated four to five weeks after treatment, averaged
Method: as §1, with “in sufficient quantities to provide the equivalent of about 0.125 kg to 0.500 kg per hectare of active compound when applied” left out
as §2, §3

CHENOPODIUM ALBUM, L. [7] = test: Preemergence herbicidal evaluation, CHEAL (Lambsquarters, Common); details: for CHEAL herbicidal rating: rated four to five weeks after treatment
From the text: as §3
The preemergence herbicidal activity of the test compounds of the present invention is exemplified by the following tests in which the seeds of a variety of monocotyledonous and dicotyledonous plants are separately mixed with potting soil and planted on top of approximately one inch of soil in separate pint cups. […] The treated cups are then placed on greenhouse benches, watered and cared for in accordance with conventional greenhouse procedures. From four to five weeks after treatment, the tests are terminated and each cup is examined and rated according to the rating system provided in Example 40.
The compounds evaluated are reported by compound number given in Example 40.

ZEA MAYS L. = test: Postemergence herbicidal evaluation, ZEAMX (Corn, Field)
Method: as §1, with “in sufficient quantities to provide the equivalent of about 0.125 kg to 0.500 kg per hectare of active compound when applied” left out
as §2, §3

[8] = test system: ORYZA SATIVA, L. TEBONNET; test: Rice tolerance to post-transplant applications under flooded paddy conditions, ORYSAT (Rice, Tebonnet); details: post-transplant rice, 3-4 weeks after treatment
Method: as §3
The tolerance of transplanted rice to post-transplanted herbicide applications is determined as follows: two ten-day-old rice seedlings (CV. Tebonnet) are transplanted into a silt loam soil in 32 oz. plastic containers with a diameter of 10.5 cm and no drainage holes. After transplanting the containers are flooded and the water level is maintained at 1.5 to 3 cm above the soil surface. […] The treated containers are placed on greenhouse benches, watered such that the water level is maintained as stated above, and cared for according to normal greenhouse procedures. Three to four weeks after treatment the test is terminated and each container is examined and herbicidal effect rated according to the rating system provided in Example 40. The compounds evaluated are reported by compound number given in Example 40.
(§4) Plant species employed in this example are reported by header abbreviation, common name and scientific name.

CASSIA OBTUSIFOLIA, L. = test: Postemergence herbicidal evaluation, CASOB (Sicklepod); details: rated four to five weeks after treatment, averaged
Method: as §1, §2, §3

[…], PRESL. = Preemergence weed control under flooded paddy conditions, MOOVA (Monochoria); details: preemergence, 3-4 weeks after treatment
Method: as §3
Preemergence herbicidal activity under flooded paddy conditions is determined as follows: plant seeds or propagating organs are planted in the top 0.5 cm of silt loam soil in 32 oz. plastic containers with a diameter of 10.5 cm and no drainage holes. Water is added to these containers and maintained at 1.5 to 3 cm above the soil surface for the duration of the experiment. The test compounds are applied as aqueous/acetone mixtures 50/50 v/v pipetted directly into the flood water to give the equivalent of about 0.5, 0.25, 0.125 and 0.063 kg/ha of active ingredient. The treated containers are placed on greenhouse benches and cared for according to normal greenhouse procedures.- Three to four weeks after treatment the test is terminated and each container is examined and herbicidal effect rated according to the rating system provided in Example 40. The compounds evaluated are reported by compound number given in Example 40.
as §4

Cn1c(=O)[nH]c(=O)n(-c2cc(Oc3c(F)cc(C(F)(F)F)cc3Cl)ccc2Br)c1=O [A, reference compound]
Herbicidal effect rating, ECHCG ([1]; 0.063 kg/ha): 0.0
Herbicidal effect rating, ECHCG ([1]; 0.125 kg/ha): 0.0
Herbicidal effect rating, ECHCG ([1]; 0.250 kg/ha): 2.0
Herbicidal effect rating, ECHCG ([1]; 0.500 kg/ha): 2.0
Herbicidal effect rating, IPOSS (IPOMOEA SPP.; 0.063 kg/ha): 6.0
Herbicidal effect rating, IPOSS (IPOMOEA SPP.; 0.125 kg/ha): 7.0
Herbicidal effect rating, IPOSS (IPOMOEA SPP.; 0.250 kg/ha): 9.0
Herbicidal effect rating, IPOSS (IPOMOEA SPP.; 0.500 kg/ha): 9.0
Herbicidal effect rating, CHEAL (CHENOPODIUM ALBUM, L. [2]; 0.063 kg/ha): 9.0
Herbicidal effect rating, CHEAL (CHENOPODIUM ALBUM, L. [2]; 0.125 kg/ha): 9.0
Herbicidal effect rating, CHEAL (CHENOPODIUM ALBUM, L. [2]; 0.250 kg/ha): 9.0
Herbicidal effect rating, CHEAL (CHENOPODIUM ALBUM, L. [2]; 0.500 kg/ha): 9.0
Herbicidal effect rating, GLXMAW ([3]; 0.063 kg/ha): 2.0
Herbicidal effect rating, GLXMAW ([3]; 0.125 kg/ha): 3.0
Herbicidal effect rating, GLXMAW ([3]; 0.250 kg/ha): 3.0
Herbicidal effect rating, GLXMAW ([3]; 0.500 kg/ha): 5.0
Herbicidal effect rating, SETVI ([4]; 0.063 kg/ha): 0.0
Herbicidal effect rating, SETVI ([4]; 0.125 kg/ha): 2.0
Herbicidal effect rating, SETVI ([4]; 0.250 kg/ha): 2.0
Herbicidal effect rating, SETVI ([4]; 0.500 kg/ha): 5.0
Herbicidal effect rating, ABUTH ([5]; 0.063 kg/ha): 5.0
Herbicidal effect rating, ABUTH ([5]; 0.125 kg/ha): 6.0
Herbicidal effect rating, ABUTH ([5]; 0.250 kg/ha): 6.0
Herbicidal effect rating, ABUTH ([5]; 0.500 kg/ha): 9.0
Herbicidal effect rating, AMBEL ([6]; 0.063 kg/ha): 1.0
Herbicidal effect rating, AMBEL ([6]; 0.125 kg/ha): 2.0
Herbicidal effect rating, AMBEL ([6]; 0.500 kg/ha): 5.0
CHEAL (CHENOPODIUM ALBUM, L. [7]; Rate 0.063 kg/ha): 9.0
CHEAL (CHENOPODIUM ALBUM, L. [7]; Rate 0.125 kg/ha): 9.0
CHEAL (CHENOPODIUM ALBUM, L. [7]; Rate 0.250 kg/ha): 9.0
CHEAL (CHENOPODIUM ALBUM, L. [7]; Rate 0.500 kg/ha): 9.0
Herbicidal effect rating, ZEAMX (ZEA MAYS L.; 0.063 kg/ha): 0.0
Herbicidal effect rating, ZEAMX (ZEA MAYS L.; 0.125 kg/ha): 0.0
Herbicidal effect rating, ZEAMX (ZEA MAYS L.; 0.250 kg/ha): 0.0
Herbicidal effect rating, ZEAMX (ZEA MAYS L.; 0.500 kg/ha): 2.0

Cn1c(=O)n(CC(=O)O)c(=O)n(-c2cc(Oc3c(F)cc(C(F)(F)F)cc3Cl)ccc2[N+](=O)[O-])c1=O [Compound 15, 3-{5-[(2-Chloro-α,α,α,6-tetrafluoro-p-tolyl)oxy]-2-nitrophenyl}tetrahydro-5-methyl-2,4,6-trioxo-s-triazine-1(2H)-acetic acid]
Herbicidal effect rating, ORYSAT ([8]; 0.063 kg/ha): 4.5
Herbicidal effect rating, ORYSAT ([8]; 0.125 kg/ha): 4.5
Herbicidal effect rating, ORYSAT ([8]; 0.250 kg/ha): 7.0
Herbicidal effect rating, ORYSAT ([8]; 0.500 kg/ha): 7.0
CASOB, herbicide rating (0-9) (CASSIA OBTUSIFOLIA, L.; Rate 0.125 kg/ha): 9.0
CASOB, herbicide rating (0-9) (CASSIA OBTUSIFOLIA, L.; Rate 0.250 kg/ha): 9.0
CASOB, herbicide rating (0-9) (CASSIA OBTUSIFOLIA, L.; Rate 0.500 kg/ha): 9.0
ABUTH, herbicide rating (0-9) ([5]; Rate 0.125 kg/ha): 9.0
ABUTH, herbicide rating (0-9) ([5]; Rate 0.250 kg/ha): 9.0
ABUTH, herbicide rating (0-9) ([5]; Rate 0.500 kg/ha): 9.0
AMBEL, herbicide rating (0-9) ([6]; Rate 0.125 kg/ha): 9.0
AMBEL, herbicide rating (0-9) ([6]; Rate 0.250 kg/ha): 9.0
AMBEL, herbicide rating (0-9) ([6]; Rate 0.500 kg/ha): 9.0
CHEAL herbicidal rating (CHENOPODIUM ALBUM, L. [7]; Rate 0.125 kg/ha): 9.0
CHEAL herbicidal rating (CHENOPODIUM ALBUM, L. [7]; Rate 0.250 kg/ha): 9.0
CHEAL herbicidal rating (CHENOPODIUM ALBUM, L. [7]; Rate 0.500 kg/ha): 9.0
Herbicidal effect rating, MOOVA ([…], PRESL.; 0.063 kg/ha): 9.0
Herbicidal effect rating, MOOVA ([…], PRESL.; 0.125 kg/ha): 9.0
Herbicidal effect rating, MOOVA ([…], PRESL.; 0.250 kg/ha): 9.0
Herbicidal effect rating, MOOVA ([…], PRESL.; 0.500 kg/ha): 9.0
